Assay results: patent US20070148250A1, “Loading of a camptothecin drug into colloidal nanoparticles” (priority 2003, published 2007)

Assays:
Type in all cases: physicochemical
[1] = Stability of camptothecin carboxylate in concentrated alkaline media (HPLC)
Description: CPT-carboxylate can be obtained quantitatively from the lactone form of CPT by incubation the latter with at least an equimolar amount or an excess of base (e.g. NaOH or NH4OH). In the most simple approach CPT lactone is stirred with 1 M NaOH or NH4OH ovenight. Higher concentrations are favourable to accelerate the process.
Camptothecin in the lactone form was dissolved at a concentration of 4.6 μg/ml in concentrated ammonia (NH4OH) in order to obtain the carboxylate form. HPLC analysis was performed directly after dissolving the lactone and after 19 days.

[2] = Fraction of free (non-liposomally bound) CPT by Vivaspin 2 centrifugal filtration (MWCO 100 kDa) and UV-spectroscopy of the filtrate
Description: For direct comparison, CPT-carboxylate loaded liposomes were made by one of the techniques as given in the literature. Liposomes, loaded with CPT-carboxylate produced by the inventive method were prepared with the same total composition. The fraction of free (non-liposomally bound) CPT was determined in both cases. The free CPT was determined by centrifugation with the centrifugal concentrator Vivaspin 2 (Vivasciences). By a membrane of MWCO 100 kDa, the molecularly dissolved solutes were separated from the colloidal particles. The concentration of CPT in the filtrate was determined by UV-spectroscopy. All measurements with camptothecin were made with tris/HCI buffer, pH 7.5, 10 mM or 20 mM.
For the production of classically made formulations, the liposomes were formed directly in the aqueous solution of CPT carboxylate. By subsequent extrusion through membranes of 200 nm pore size homogeneous mixing and encapsulation was provided. The liposomes were made either by the ‘film method’ or by ‘ethanol injection’.
For the film method, a solution of lipids in chloroform is evaporated in a round bottom flask. A thin dry lipid film is formed at the inner wall of the flask. For the production of empty liposomes, the film is reconstituted with water or buffer solution. For the production of CPT loaded liposomes, the film is reconstituted with the CPT-carboxylate solution. […]
A lyophilisate of DOTAP liposomes (30 mM) was reconstituted with 2.088 ml of an aqueous solution of CPT carboxylate in water (1.4 mM). […] From the resulting preparation the fraction of free CPT was determined by centrifugation at different lipid concentrations.
1 ml of the DOTAP concentrate and 9 ml of CPT carboxylate solution, c=[…] were mixed. […] This preparation was diluted 1:10 1:25 and 1:50 and the fraction of free CPT was determined.
Liquid DOTAP formulations were exposed to CPT-carboxylate solutions for different time scales. […] After the given time, the fraction of free CPT was determined for different dilutions. […]

[3] = Loading of aminofluorescein to DOTAP/DOPC liposomes, cross-flow filtration and UV-vis; conditions: DOTAP/DOPC 1:1 liposomes, after three cycles of filtration
Description: A 25 mM liposome formulation consisting of DOTAP/DOPC 1:1 in a solution of 5% glucose (w/v) was prepared. Briefly, a solution of DOTAP/DOPC in chloroform was put into a round bottom flask, and the solvent was evaporated in order to obtain a thin lipid film. The lipid film was reconstituted with the glucose solution to a total lipid concentration of 25 mM. The resulting multilamellar, polydisperse liposome suspension was extruded through a membrane of 200 nm pore size to obtain liposomes of uniform size.
10 ml of the liposome preparation and 10 ml of a 5 mM aqueous solution of aminofluorescein were combined.
Subsequently, the molecularly dissolved components were removed by cross-flow filtration, using a VIVAFLOW filtration kit, […] and a Masterflex easy lod pump, model.
20 ml of the preparation were diluted with 20 ml glucose. By the subsequent dialysis, part of the solvent and the molecularly dissolved (low molecular) compound penetrated across the separation membrane, while the liposomes were retained. Filtration was performed until the volume of the original solution was reduced to half of the start volume. Then the lost volume was substituted by glucose solution and the filtration was started again. Three filtration cycles were performed.
The concentration of aminofluorescein in the permeate and in the retained liposome suspension was determined by UV-vis spectroscopy.

[4] = Solubility of camptothecin in buffered aqueous phase at different pH values; conditions: 50 mM buffer, pH values below 7, within few days
Description: In this measurements, the solubility of camptothecin in aqueous media at different pH values is investigated. Pure camptothecin carboxylate was dissolved in a buffered (50 mM) aqueous phase at different pH values. At different times the solutions were centrifuged in order to remove camptothecin lactone crystals and the remaining concentration of the camptothecin in the supernatant was determined by UV-vis spectroscopy. […] These concentrations are too low for sufficient pharmaceutical efficacy.

CCC(O)(C(=O)O)c1cc2n(c(=O)c1CO)Cc1cc3ccccc3nc1-2 (centres unmarked) [camptothecin carboxylate]
chemical degradation [1]: no indication for chemical degradation | loading efficacy in DOTAP/DOPC liposomes ([2]; 30-100% DOTAP, total lipid 15 mM, CPT 0.75 mM, additional presence of DOPC): only slightly reduced

aminofluorescein
amount retained with the liposome suspension ([3]; 5% glucose): 47 % of the original concentration | retained amount relative to expected value without any retention [3]: four times as high

CC[C@@]1(O)C(=O)OCc2c1cc1n(c2=O)Cc2cc3ccccc3nc2-1 [Camptothecin, 20(S)-Camptothecine (1H-Pyrano[3′,4′:6,7]indolizino[1,2-b]quinoline-3,14 (4H,12H)-dione, 4-ethyl-4-hydroxy-, (S)—)]
degradation by the alkaline medium (HPLC) ([1]; 4.6 μg/ml in concentrated ammonia (NH4OH), after 19 days): no indication for a degradation | concentration of camptothecin remaining in supernatant [4]: very low values | loading of DOTAP liposomes with CPT at first time point after mixing ([2]; DOTAP 15 mM, CPT carboxylate 0.75 mM, original concentration, Tris/HCl 10 mM pH 7.5): loading reached saturation | time up to which fraction of loaded drug increased ([2]; diluted samples of DOTAP 15 mM/CPT 0.75 mM mixture, not stirred): up to 4 hours
